Patent publication US20130065818A1, “Arylamide Compounds And Compositions And Uses Thereof” (POLYMEDIX, priority 2006, published 2013)
In brackets after ≈: the same amount, converted by molar mass. Read-outs that look alike come from different tables or passages of the source.

Experiments:
Assay type in all cases: cell-based
S. aureus ATCC 27660 = assay: MIC, control bacteria (Example 8)
Method: • Mueller-Hinton Broth in tubes was inoculated with 25 ocular isolates of Staphylococcus aureus fluoroquinolone-susceptible, Staphylococcus aureus fluoroquinolone-resistant, Staphylococcus epidermidis (Coagulase-negative Staphylococcus) fluoroquinolone-susceptible, Staphylococcus epidermidis (Coagulase-negative Staphylococcus) fluoroquinolone-resistant, Pseudomonas aeruginosa and Serratia marcescens, plus two controls (Staphylococcus aureus and E. coli) and incubated at 37° C. overnight on a shaker set at 250 rpm.
Control Bacteria—The two control bacteria (Staphylococcus aureus and E. coli) were treated as above.
Control Bacteria Set #1—this set of control bacteria were treated as the Streptococcus pneumoniae, Streptococcus viridans and Moraxella species (including Moraxella catarrhalis) test isolates above; the control bacteria underwent the same conditions as the test Streptococcus pneumoniae, Streptococcus viridans and Moraxella species (including Moraxella catarrhalis) isolates. This set of control bacteria was to determine whether there was a difference in the MICs by performing the MIC determinations in 2% lysed horse red blood cells with the standard method performed in Mueller-Hinton broth.
Control Bacteria Set #2—the control bacteria were added to 5 ml of Mueller-Hinton Broth without the 2% lysed horse red blood cells to achieve the standard inoculum concentration. This set of control bacteria is the normal control to determine whether the compounds are at the target MICs.
Control Bacteria Set #1—this set of control bacteria were treated as the Haemophilus influenzae test isolates above; the control bacteria underwent the same conditions as the test Haemophilus influenzae isolates. This set of control bacteria is to determine whether there was a difference in the MICs by performing the MIC determinations in HTM broth with the standard method performed in Mueller-Hinton broth.
Control Bacteria Set #2—the control bacteria were added to 5 ml of Mueller-Hinton Broth to achieve the standard inoculum concentration. This set of control bacteria is the normal control to determine whether the compounds are at the target MICs.
Ninety μl of the bacterial suspensions was dispensed in each well from column 1 to column 12. Each bacterial isolate was placed in one row of a 96 well polypropylene plate containing the test agents. The plates were placed on shaker at 15 minutes at room temperature, and then incubated at 37° C. overnight. MICs were determined visually as the lowest concentration of drug that inhibits visible bacterial growth.

E. faecalis ATCC 29212 = assay: MIC, laboratory strains (Example 8)
P. aeruginosa ATCC 10145 = assay: MIC, laboratory strains (Example 8)

With `N=C(N)NCCCCC(=O)Nc1cc(C(F)(F)F)cc(NC(=O)c2cc(C(=O)Nc3cc(C(F)(F)F)cc(NC(=O)CCCCNC(=N)N)c3O[C@@H]3CCNC3)ncn2)c1O[C@@H]1CCNC1` [Oligomer 4] the “Decrease of activity by use of HTM broth” value (S. aureus ATCC 27660; Control Bacteria S. aureus ATCC 27660) was “approximately 8 fold”, the MIC (S. aureus ATCC 27660; Control Bacteria Set #1, run with Haemophilus influenzae MIC test, read-out: MIC) was 4 µg/mL (≈ 4.27 µM) and the MIC (S. aureus ATCC 27660; S. aureus ATCC 27660) was 0.098 µg/mL (≈ 0.105 µM). It also gave an MIC (S. aureus ATCC 27660; S. aureus ATCC 27660, Control for MIC Test SA-FQR, first batch) of 1 µg/mL (≈ 1.07 µM), an MIC (S. aureus ATCC 27660; S. aureus ATCC 27660, Control for MIC Test SA-FQS, first batch) of 2 µg/mL (≈ 2.13 µM) and an MIC (S. aureus ATCC 27660; S. aureus ATCC 27660, new batches, Control Only 1) of 0.25 µg/mL (≈ 0.267 µM). It also gave an MIC (S. aureus ATCC 27660; S. aureus ATCC 27660, new batches, Control Only 2) of 0.25 µg/mL (≈ 0.267 µM), an MIC (S. aureus ATCC 27660; S. aureus ATCC 27660, new batches, Control Only 3) of 0.25 µg/mL (≈ 0.267 µM) and an MIC (S. aureus ATCC 27660; S. aureus ATCC 27660, new batches, Control Only 4) of 0.5 µg/mL (≈ 0.534 µM). For the same molecule, the MIC (S. aureus ATCC 27660; Staphylococcus aureus, ATCC27660, Control Bacteria Set #1, run with Moraxella MIC test, read-out: MIC) was 1 µg/mL (≈ 1.07 µM), the MIC (S. aureus ATCC 27660; Staphylococcus aureus, ATCC27660, Control Only 1, read-out: MIC of control bacteria on day of MIC testing) was 0.25 µg/mL and the MIC (S. aureus ATCC 27660; Staphylococcus aureus, ATCC27660, Control Only 2, read-out: MIC of control bacteria on day of MIC testing) was 0.25 µg/mL. It also gave an MIC (S. aureus ATCC 27660; Staphylococcus aureus, ATCC27660, Control Only 3, read-out: MIC of control bacteria on day of MIC testing) of 0.25 µg/mL, an MIC (S. aureus ATCC 27660; Staphylococcus aureus, ATCC27660, Control Only 4, read-out: MIC of control bacteria on day of MIC testing) of 0.5 µg/mL and an MIC (S. aureus ATCC 27660; Staphylococcus aureus, ATCC27660, S. aureus ATCC 27660, Control Bacteria Set #1 (same conditions as test isolates), run with Streptococcus pneumoniae MIC test, read-out: MIC) of 1 µg/mL (≈ 1.07 µM). It also gave an MIC (S. aureus ATCC 27660; Staphylococcus aureus, ATCC27660, S. aureus ATCC 27660, Control Bacteria Set #1 (same conditions as test isolates), run with Streptococcus viridans group MIC test, read-out: MIC) of 2 µg/mL (≈ 2.13 µM), an MIC (S. aureus ATCC 27660; Staphylococcus aureus, ATCC27660, S. aureus ATCC 27660, Control Bacteria Set #2 (Mueller-Hinton Broth), run with Streptococcus pneumoniae MIC test, read-out: MIC) of 0.25 µg/mL (≈ 0.267 µM) and an MIC (S. aureus ATCC 27660; Staphylococcus aureus, ATCC27660, S. aureus ATCC 27660, Control Bacteria Set #2 (Mueller-Hinton Broth), run with Streptococcus viridans group MIC test, read-out: MIC) of 1 µg/mL (≈ 1.07 µM). It also gave an MIC (S. aureus ATCC 27660; Staphylococcus aureus, ATCC27660, S. aureus ATCC 27660, control bacteria run with Pseudomonas aeruginosa MIC test, read-out: MIC) of 0.5 µg/mL (≈ 0.534 µM), an MIC (S. aureus ATCC 27660; Staphylococcus aureus, ATCC27660, S. aureus ATCC 27660, control bacteria run with S. aureus fluoroquinolone-resistant MIC test, read-out: MIC) of 1 µg/mL (≈ 1.07 µM) and an MIC (S. aureus ATCC 27660; Staphylococcus aureus, ATCC27660, S. aureus ATCC 27660, control bacteria run with S. aureus fluoroquinolone-susceptible MIC test, read-out: MIC) of 2 µg/mL (≈ 2.13 µM). It also gave an MIC (S. aureus ATCC 27660; Staphylococcus aureus, ATCC27660, S. aureus ATCC 27660, control bacteria run with S. epidermidis fluoroquinolone-resistant MIC test, read-out: MIC) of 0.25 µg/mL (≈ 0.267 µM), an MIC (S. aureus ATCC 27660; Staphylococcus aureus, ATCC27660, S. aureus ATCC 27660, control bacteria run with S. epidermidis fluoroquinolone-susceptible MIC test, read-out: MIC) of 0.25 µg/mL (≈ 0.267 µM) and an MIC (S. aureus ATCC 27660; Staphylococcus aureus, ATCC27660, S. aureus ATCC 27660, control bacteria run with Serratia marcescens MIC test, read-out: MIC) of 0.25 µg/mL (≈ 0.267 µM). The MIC (S. aureus ATCC 27660; Staphylococcus aureus, ATCC27660, S. aureus ATCC 27660, MIC previously obtained (target MIC), printed in parentheses, read-out: MIC for Control Bacteria within the parentheses) was 0.098 µg/mL (≈ 0.105 µM), the MIC (S. aureus ATCC 27660; Staphylococcus aureus, ATCC27660, S. aureus ATCC27660, read-out: MIC) was 0.098 µg/mL (≈ 0.105 µM) and the MIC (S. aureus ATCC 27660; Staphylococcus aureus, ATCC27660, control for MIC test HI (Control Bacteria Set #2), read-out: MIC of control bacteria on day of MIC testing) was 0.5 µg/mL. It also gave an MIC (S. aureus ATCC 27660; Staphylococcus aureus, ATCC27660, control for MIC test MS (Control Bacteria Set #2), read-out: MIC of control bacteria on day of MIC testing) of 0.5 µg/mL, an MIC (S. aureus ATCC 27660; Staphylococcus aureus, ATCC27660, control for MIC test PA, read-out: MIC of control bacteria on day of MIC testing) of 0.5 µg/mL and an MIC (S. aureus ATCC 27660; Staphylococcus aureus, ATCC27660, control for MIC test SA-FQR, read-out: MIC of control bacteria on day of MIC testing) of 1 µg/mL. It also gave an MIC (S. aureus ATCC 27660; Staphylococcus aureus, ATCC27660, control for MIC test SA-FQS, read-out: MIC of control bacteria on day of MIC testing) of 2 µg/mL, an MIC (S. aureus ATCC 27660; Staphylococcus aureus, ATCC27660, control for MIC test SE-FQR, read-out: MIC of control bacteria on day of MIC testing) of 0.25 µg/mL and an MIC (S. aureus ATCC 27660; Staphylococcus aureus, ATCC27660, control for MIC test SE-FQS, read-out: MIC of control bacteria on day of MIC testing) of 0.25 µg/mL. For the same molecule, the MIC (S. aureus ATCC 27660; Staphylococcus aureus, ATCC27660, control for MIC test SM, read-out: MIC of control bacteria on day of MIC testing) was 0.25 µg/mL, the MIC (S. aureus ATCC 27660; Staphylococcus aureus, ATCC27660, control for MIC test SP, read-out: MIC of control bacteria on day of MIC testing) was 0.25 µg/mL and the MIC (S. aureus ATCC 27660; Staphylococcus aureus, ATCC27660, control for MIC test SV, read-out: MIC of control bacteria on day of MIC testing) was 1 µg/mL. For the same molecule, the MIC (S. aureus ATCC 27660; Staphylococcus aureus, ATCC27660, reference MIC printed in parentheses beside the day's control value, read-out: MIC for Control Bacteria (within the parentheses)) was 0.098 µg/mL (≈ 0.105 µM), the MIC (E. faecalis ATCC 29212) was 0.78 µg/mL (≈ 0.833 µM) and the MIC (P. aeruginosa ATCC 10145) was 12.5 µg/mL (≈ 13.3 µM).
